Data as given in PubChem BioAssay (NCI).
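96-well plates; 48 h exposure; 5 concentrations. Endpoints by linear interpolation between flanking doses. Not reached: highest tested concentration assigned. Here, GI50 denotes the concentration required for 50% inhibition of growth. TGI: total growth inhibition.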

Legend:
Experiment in all cases: DTP human tumour cell line panel, 48 h
PC-3 prostate = test system: PC-3 prostate
UACC-257 melanoma = test system: UACC-257 melanoma
K-562 leukemia = test system: K-562 leukemia
NCI-H522 lung = test system: NCI-H522 lung
LOX IMVI melanoma = test system: LOX IMVI melanoma
HCC-2998 colon = test system: HCC-2998 colon
DU-145 prostate = test system: DU-145 prostate
SK-OV-3 ovarian = test system: SK-OV-3 ovarian
ACHN renal = test system: ACHN renal
RXF 393 renal = test system: RXF 393 renal
UO-31 renal = test system: UO-31 renal
OVCAR-8 ovarian = test system: OVCAR-8 ovarian
OVCAR-5 ovarian = test system: OVCAR-5 ovarian
HS 578T breast = test system: HS 578T breast
SN12C renal = test system: SN12C renal
A549 NSCLC = test system: A549 NSCLC
SW-620 colon = test system: SW-620 colon
SK-MEL-28 melanoma = test system: SK-MEL-28 melanoma
U251 CNS = test system: U251 CNS
MALME-3M melanoma = test system: MALME-3M melanoma
KM12 colon = test system: KM12 colon
SNB-19 CNS = test system: SNB-19 CNS
OVCAR-4 ovarian = test system: OVCAR-4 ovarian
MCF7 breast = test system: MCF7 breast
MDA-MB-435 = test system: MDA-MB-435
EKVX NSCLC = test system: EKVX NSCLC
SF-295 CNS = test system: SF-295 CNS
UACC-62 melanoma = test system: UACC-62 melanoma
CCRF-CEM leukemia = test system: CCRF-CEM leukemia

Q: How did the TGI (PC-3 prostate) turn out when `O=C1C=C[C@]2(C[C@@H](c3cccc(C(F)(F)F)c3)O[C@@H](c3cccc(C(F)(F)F)c3)O2)O1` was run?
A: Its TGI is 8.27 µM.

Q: And the GI50 (UACC-257 melanoma)?
A: Its GI50 is 2.29 µM.

Q: And the TGI (UACC-257 melanoma)?
A: Its TGI is 5.77 µM.

Q: What about the GI50 (K-562 leukemia) of the same compound?
A: The GI50 was 2.68 µM.

Q: And the TGI (K-562 leukemia)?
A: The TGI was over 100 µM.

Q: What about the GI50 (NCI-H522 lung) of the same compound?
A: The GI50 was 1.59 µM.

Q: What about the TGI (NCI-H522 lung) of the same compound?
A: Its TGI is 3.99 µM.

Q: And the GI50 (LOX IMVI melanoma)?
A: Its GI50 is 0.433 µM.

Q: And the TGI (LOX IMVI melanoma)?
A: Its TGI is 1.71 µM.

Q: What about the GI50 (HCC-2998 colon) of the same compound?
A: Its GI50 is 1.63 µM.

Q: And the TGI (HCC-2998 colon)?
A: Its TGI is 3.18 µM.

Q: And the GI50 (DU-145 prostate)?
A: Its GI50 is 5.72 µM.

Q: What about the TGI (DU-145 prostate) of the same compound?
A: Its TGI is 18.4 µM.

Q: And the GI50 (SK-OV-3 ovarian)?
A: Its GI50 is 14.4 µM.

Q: And the TGI (SK-OV-3 ovarian)?
A: The TGI was 28.1 µM.

Q: What about the GI50 (ACHN renal) of the same compound?
A: The GI50 was 1.55 µM.

Q: And the TGI (ACHN renal)?
A: The TGI was 3.1 µM.

Q: What about the GI50 (RXF 393 renal) of the same compound?
A: The GI50 was 1.67 µM.

Q: And the TGI (RXF 393 renal)?
A: The TGI was 3.91 µM.

Q: And the GI50 (UO-31 renal)?
A: Its GI50 is 1.84 µM.

Q: And the TGI (UO-31 renal)?
A: The TGI was 5.08 µM.

Q: And the GI50 (OVCAR-8 ovarian)?
A: Its GI50 is 3.03 µM.

Q: And the TGI (OVCAR-8 ovarian)?
A: The TGI was 13.4 µM.

Q: And the GI50 (OVCAR-5 ovarian)?
A: Its GI50 is 7.76 µM.

Q: What about the TGI (OVCAR-5 ovarian) of the same compound?
A: The TGI was 26.1 µM.

Q: And the GI50 (HS 578T breast)?
A: Its GI50 is 12.2 µM.

Q: What about the TGI (HS 578T breast) of the same compound?
A: The TGI was 60.7 µM.

Q: And the GI50 (SN12C renal)?
A: Its GI50 is 2.91 µM.

Q: What about the TGI (SN12C renal) of the same compound?
A: Its TGI is 12.4 µM.

Q: And the GI50 (A549 NSCLC)?
A: The GI50 was 5.57 µM.

Q: What about the TGI (A549 NSCLC) of the same compound?
A: The TGI was 20.4 µM.

Q: And the GI50 (SW-620 colon)?
A: Its GI50 is 1.76 µM.

Q: What about the TGI (SW-620 colon) of the same compound?
A: Its TGI is 5.14 µM.

Q: What about the GI50 (SK-MEL-28 melanoma) of the same compound?
A: The GI50 was 2.34 µM.

Q: What about the TGI (SK-MEL-28 melanoma) of the same compound?
A: The TGI was 6.44 µM.

Q: And the GI50 (U251 CNS)?
A: The GI50 was 2.58 µM.

Q: What about the TGI (U251 CNS) of the same compound?
A: Its TGI is 12.9 µM.

Q: What about the GI50 (MALME-3M melanoma) of the same compound?
A: Its GI50 is 2.27 µM.

Q: What about the TGI (MALME-3M melanoma) of the same compound?
A: Its TGI is 7.06 µM.

Q: What about the GI50 (KM12 colon) of the same compound?
A: Its GI50 is 3.09 µM.

Q: And the TGI (KM12 colon)?
A: Its TGI is 13.9 µM.

Q: And the GI50 (SNB-19 CNS)?
A: The GI50 was 3.13 µM.

Q: And the TGI (SNB-19 CNS)?
A: The TGI was 16.1 µM.

Q: What about the GI50 (OVCAR-4 ovarian) of the same compound?
A: The GI50 was 5.24 µM.

Q: What about the TGI (OVCAR-4 ovarian) of the same compound?
A: The TGI was 19.3 µM.

Q: And the GI50 (MCF7 breast)?
A: Its GI50 is 0.389 µM.

Q: And the TGI (MCF7 breast)?
A: Its TGI is 3.68 µM.

Q: And the GI50 (MDA-MB-435)?
A: The GI50 was 1.6 µM.

Q: And the TGI (MDA-MB-435)?
A: The TGI was 3.39 µM.

Q: And the GI50 (EKVX NSCLC)?
A: The GI50 was 12.9 µM.

Q: What about the TGI (EKVX NSCLC) of the same compound?
A: The TGI was 27.7 µM.

Q: And the GI50 (SF-295 CNS)?
A: Its GI50 is 4.18 µM.

Q: And the TGI (SF-295 CNS)?
A: Its TGI is 17.2 µM.

Q: What about the GI50 (UACC-62 melanoma) of the same compound?
A: Its GI50 is 1.77 µM.

Q: What about the TGI (UACC-62 melanoma) of the same compound?
A: The TGI was 4.63 µM.

Q: And the GI50 (CCRF-CEM leukemia)?
A: Its GI50 is 2.48 µM.

Q: And the TGI (CCRF-CEM leukemia)?
A: Its TGI is 13.1 µM.
